Source: patent US11529353B2, “Pharmaceutical composition comprising Palbociclib” (Synthon B.V., priority 2017, dated 2022)

Tests used:
[1] = Specific surface area by BET-nitrogen adsorption analysis; assay type: physicochemical
Experimental: The specific surface area (SSA) is assessed with a Quantachrome NOVA touch 2LX. The N2 is used as measuring gas and BET method is used to evaluate SSA. The following setup has been used for the measurement: • Adsorbate: Nitrogen • Sample cell: 9 mm large bulb cell, long; Measurement is performed with the corresponding filler rod • Sample masses*: approximately ¾ of cell bulb • Degassing conditions: 960 min at 30° C. under vacuum (ramping 10° C./min) • Measured points of isotherm: 11 equidistant points in the range 0.05-0.30 p/p0** • Points analyzed using BET: 7equidistant points from whole range 0.05-0.20 p/p0 • Use data reduction adsorbate model: Yes (N2) • Bath thermal delay: at least 600 s • P0 Option: continuous (measured each 30 minutes) • Void volume mode: Helium measure • Equilibration time: 160 s • Equilibration timeout: 2400 s • Tolerance: 0.05 • * Used amount of sample depends on its SSA and other physical parameters. The real surface area of sample in measuring cell should be between 1 m^2/g and 20 m^2/g. • ** Points above or below this range can be measured.

[2] = Particle size distribution by LASER diffraction (Malvern Mastersizer 2000); assay type: physicochemical
Experimental: The particle size distribution (PSD) is determined with LASER diffraction analyzer Malvern Mastersizer 2000 which operates in size ranges from 0.02 μm to 2,000 μm. The wet dispersion is prepared from dry powder sample and added to the dispersion unit. Gained raw data are computed by software to PSD with the use of Mie theory. This method is based on Ph. Eur. Method 2.9.31 and USP <429>.

[3] = cited from earlier work

For `CC(=O)c1c(C)c2cnc(Nc3ccc(N4CCNCC4)cn3)nc2n(C2CCCC2)c1=O` [Palbociclib], the surface area [1] is given as 6.9 m^2/g, the D90 [2] is given as 11.5 μm and the solubility ([3]; above pH 4) is given as “reduces significantly”. For the same molecule, the solubility in water ([3]; at or below pH 4) was “high-solubility compound”.
